Assay results taken from patent publication US7208154B2, “Methods and compositions for the treatment of MHC-associated conditions” (Regents of the University of Michigan, priority 2002, dated 2007).
pIC50: −log10 of the molar value. Blank lines part the entries; values can stand above or below the compound they belong to. No end group written: not given here.

Key:
[1] = molecular target: T1, purified recombinant calreticulin (Homo sapiens, UniProt P27797); assay: Surface plasmon resonance, peptides immobilized on CM5 chip, calreticulin in flow phase; assay type: binding; conditions: peptide immobilized on Biacore sensor chip CM5
T1 sequence (P27797 18-417): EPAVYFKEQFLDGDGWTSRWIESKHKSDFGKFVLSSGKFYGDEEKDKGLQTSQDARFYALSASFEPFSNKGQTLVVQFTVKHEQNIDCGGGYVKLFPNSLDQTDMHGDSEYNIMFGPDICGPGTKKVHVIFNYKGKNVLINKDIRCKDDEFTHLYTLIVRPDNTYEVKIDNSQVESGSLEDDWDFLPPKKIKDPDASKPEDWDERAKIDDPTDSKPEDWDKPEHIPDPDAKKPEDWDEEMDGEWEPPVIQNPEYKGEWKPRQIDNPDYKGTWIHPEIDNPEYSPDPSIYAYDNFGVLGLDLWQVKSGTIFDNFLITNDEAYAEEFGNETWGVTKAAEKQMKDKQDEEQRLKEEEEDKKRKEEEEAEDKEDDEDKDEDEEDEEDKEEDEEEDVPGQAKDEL
Description: To determine whether 65–78*0404 [SEQ ID NO: 28]-conjugated peptides bind these proteins directly, purified recombinant products were used. […] Shared epitope-containing peptides, 65–79*0401-[SEQ ID NO: 5] and 65–79*0404-[SEQ ID NO: 10], as well as a control peptide 65–79*0402-[SEQ ID NO: 7] were immobilized on different channels in a Biacore® sensor chip CM5 and purified recombinant calreticulin was applied in the flow phase.

mouse cells = assay: cAMP-mediated DNA repair induction in mouse cells (data not shown); assay type: cell-based
Method: (§1) To directly examine that possibility, cells were incubated overnight with synthetic peptides corresponding to the region contained within amino acids 65–79 and their ability to mount DNA repair activity in response to cAMP-elevating agents was determined. M1 cells were preincubated overnight with 50 μg/ml of synthetic peptides corresponding to the region surrounding the third allelic hypervariable region (aa 65–79) of each of the following DRβ chains: *0401 (65–79*0401) [SEQ ID NO: 5], *0402 (65–79*0402) [SEQ ID NO: 7], *0403 (65–79*0403) [SEQ ID NO: 9] or *0404(65–79*0404) [SEQ ID NO: 10]. At the end of the preincubation, cells were collected, washed and 2CA-induced DNA repair was determined as above. Table 3 (above) lists the different third allelic hypervariable region peptides used in the entire study disclosed here.

[2] = system: human fibroblastoid line M1 cells; conditions: for Inhibition of cAMP-mediated (2CA-induced) DNA repair induction: M1 cells preincubated overnight with 50 μg/ml soluble peptide
Description: To further determine the signaling pathways involved in DNA repair induction, the inventors used the Trevigen CometAssay™ kit (Cat. No. 4250-50-K). The CometAssay is a single-cell gel electrophoresis method that can measure a variety of types of DNA damage, and repair of damage, in individual cells. The assay is based on the alkaline lysis of labile DNA at sites of damage. The unwound, relaxed DNA is able to migrate out of the cell during electrophoresis and can be visualized by SYBR Green staining.
(§2) To quantify DNA damage, cells were collected and three parallel samples were processed (a negative control, a DNA damage control (H2O2) and a sample subjected to H2O2 following exposure to various modulators of the cAMP signaling pathway). Cells are then washed in PBS. The washed cells are combined with molten low-melting agarose (Trevigen Cat. No. 4250-50-02) and transferred to a CometSlide™ (Trevigen Cat. No. 4250-100-03). The slides are immersed in lysis buffer for 30 min, on ice, in the dark. The slides are then treated with alkali buffer for 20 to 60 min at room temperature in the dark. The slides are then electrophoresed in buffer for 10 min at 20 volts, then fixed in methanol and ethanol. The slides are then stained with SYBR green (Trevigen Cat. No. 4250-50-05) solution and fluorescently imaged with a Diagnostic Instruments digitized camera, mounted on a Nikon Eclipse E400 microscope. Scion Image software is used to quantitate the comet tail intensity. Each data point is derived from tail fluorescent intensity determination in 50–100 individual cells. Data is presented as % DNA repair (the percent decrement in tail fluorescence intensity in agonist or antagonist-treated cells, relative to the intensity recorded in cells treated with H2O2 only)±SEM. (R.U.s)
as §1
A modified method as described previously by Auger et al. [Nature Med 2:306–310 1996] was used. Briefly, cyanogen bromide activated Speharose 4B (1.5 ml) was washed with 1 mM HCl and incubated with peptides in 0.1 M NaHCO3 and 0.5 M NaCl (pH 8) buffer overnight at 4° C. For each peptide, 5 mg was used per milliliter of Sepharose. Free Sepharose groups were blocked with 0.2 M glycine (pH 8) for 2 hours at room temperature. Columns were washed at 4° C. with the following buffers: 0.1 M NaHCO3, 0.5 M NaCl (pH 8) buffer, then 0.5 M CH3COONa (pH 4) buffer and finally PBS at pH 7.5. M1 cells were plated at a density of 0.5×10^6 cells per well (6 well plate) in 10% FBS DMEM medium until 70–80% confluence. Prior to incubation with peptides, cultures were changed to serum-free DMEM medium, then evenly overlaid with 50 μg bead conjugated peptides, and incubated for the indicated period. Soluble peptides were added overnight to M1 cells at a concentration of 50 μg/ml.

[3] = system: Total cellular protein extracts; assay: Peptide affinity chromatography of total cellular protein extracts; assay type: binding; conditions: total cellular protein extracts loaded
Description: Total cellular protein extracts were loaded onto columns of Sepharose beads, conjugated with either shared epitope-containing peptide 65–78*0404 [SEQ ID NO: 28] or the control peptide 65–78*0402 [SEQ ID NO: 8]. Bound proteins were eluted at low pH. […] 11 sequenced bands matched intracellular proteins, and only two sequences matched previously identified cell surface proteins: heat shock protein 60 (HSP60) and calreticulin. Both calreticulin and HSP60 are chaperones, with strong tendency to form hetero-complexes.

calreticulin = molecular target: T2, calreticulin (Homo sapiens, UniProt P27797); assay: Peptide affinity column binding of purified recombinant calreticulin; conditions: immunoblot of eluate
T2 sequence (P27797 18-417): T1 sequence (P27797 18-417)

[4] = molecular target: T3, human A2A adenosine receptor (Homo sapiens, UniProt P29274); assay: Comet assay DNA repair in HEK293/A2a transfectants; assay type: cell-based; conditions: 20 min pretreatment, various doses
T3 construct: expressed in transfected cells; provided by Joel Linden
T3 sequence (P29274 whole entry): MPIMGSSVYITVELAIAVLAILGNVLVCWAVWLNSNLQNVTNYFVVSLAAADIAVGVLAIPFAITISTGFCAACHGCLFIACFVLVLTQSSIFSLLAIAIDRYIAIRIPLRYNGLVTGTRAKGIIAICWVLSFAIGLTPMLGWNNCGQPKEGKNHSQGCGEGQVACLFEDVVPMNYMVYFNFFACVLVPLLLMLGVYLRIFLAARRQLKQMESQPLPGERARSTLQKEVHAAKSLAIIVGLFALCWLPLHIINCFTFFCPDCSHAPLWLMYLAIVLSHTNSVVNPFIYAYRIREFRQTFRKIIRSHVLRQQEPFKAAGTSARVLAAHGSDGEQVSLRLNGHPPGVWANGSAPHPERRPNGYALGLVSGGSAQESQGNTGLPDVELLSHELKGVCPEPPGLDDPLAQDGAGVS
Method: as §2
(§3) Human embryonic kidney 293 cells (HEK 293) transfected with adenosine receptors were provided by Joel Linden. […]

[5] = molecular target: T4, human A2B adenosine receptor (Homo sapiens, UniProt P29275); assay: Comet assay DNA repair in HEK293/A2b transfectants; assay type: cell-based; conditions: 20 min pretreatment, various doses
T4 construct: expressed in transfected cells; provided by Joel Linden
T4 sequence (P29275 1-332): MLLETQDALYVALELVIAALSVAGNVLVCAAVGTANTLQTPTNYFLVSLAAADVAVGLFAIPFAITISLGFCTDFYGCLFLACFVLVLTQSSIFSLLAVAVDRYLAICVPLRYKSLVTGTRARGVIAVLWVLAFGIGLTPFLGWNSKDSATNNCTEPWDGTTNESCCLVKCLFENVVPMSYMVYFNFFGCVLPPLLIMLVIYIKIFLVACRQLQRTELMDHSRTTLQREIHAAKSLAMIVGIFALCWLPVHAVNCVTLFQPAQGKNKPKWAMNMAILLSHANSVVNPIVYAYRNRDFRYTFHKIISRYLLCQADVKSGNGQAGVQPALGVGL
Method: as §2, §3

[6] = system: hybrid neuroblastoma-glioma NG108–15 cell line; assay: Neuroprotection in acutely stressed NG108–15 cells; assay type: cell-based
Method: In order to assess whether shared epitope-containing peptides exert a neuroprotective effect, preliminary experiments were carried out with the hybrid neuroblastoma-glioma NG108–15 cell line. Cells (10^5/ml) were first cultured overnight at near-confluence in 24-well plates in DMEM medium supplemented with 1% fetal calf serum (FCS). Under these conditions, NG108–15 cells show a flat, multipolar morphology and neurite formation. After 20 hours, cells were stressed acutely in serum-free medium (by aspiration of the medium and replacement with serum-free DMEM) with 50 μg/ml of peptides and evaluated morphologically at different time points thereafter. […] Morphological differences between cultures treated with different peptides could be observed as early as 5–6 hrs after treatment. The photographs shown were taken at the 24 hr time point. In another experiment (FIG. 12C), NG108–15 cells were cultured at low cell density (2×10^4/ml) in 1% FCS-containing DMEM medium overnight. The next day cells were subjected to acute stress in serum-free and low glucose (RPMI1640) medium (after aspiration of the 1% FCS DMEM) in the presence of 50 μg/ml of either 65–78*0401 [SEQ ID NO: 6] or 65–78*0402 [SEQ ID NO: 8] peptides. After 72 hours, cells were fixed with 1% formaldehyde and inspected microscopically. Mean±SEM was determined by averaging cell counts in eight randomly-selected microscopic fields in 200× magnification. Neurite-positive cells were defined as cells with one or more projections extending at least twice as long as the cell diameter. […] (FIG. 12C). The calculated number of neurite-positive cells was over 6-fold higher in shared epitope-containing peptide-cultured cells. When cultured in the presence of lysophosphatidic acid or high concentrations of serum, neuronal cells undergo neurite retraction (130). […] Thus, it is concluded that shared epitope-containing peptides may exert neuroprotective effects.

M1 cells = assay: cGMP level (enzyme immunoassay) in M1 cells; assay type: cell-based, human; conditions: M1 cells exposed to 50 μg/ml soluble peptide
Method: cGMP was determined using an Amersham Pharmacia Biotech cGMP enzymeimmunoassay (EIA) system (Code RPN 226). The reagents (lysis reagents, standards, antibody, cGMP conjugate and wash buffer) are all prepared according to the manufacturer's instructions. Briefly, samples are acetylated with acetylation reagent (acetic anhydride in triethylamine) and then incubated with the antibody reagent and lysis buffer according to the manufacturer's instructions. The cGMP conjugate is then added and the microtiter plate is incubated according to the manufacturer's instructions. The wells are aspirated and washed, enzyme substrate is added and incubated, and the plate can be read at 630 nm or 450 nm (depending on the length of incubation and how the reaction was terminated). Controls are carried out as recommended by the manufacturer, and the results are calculated according to the manufacturer.
D.) cGMP levels in M1 cells were determined as described above using an enzyme immunoassay kit (Pharmacia) at different time points following exposure to 50 μg/ml of soluble 65–78*0401 [SEQ ID NO: 6] or 65–78*0402 [SEQ ID NO: 8] peptides.

Compound: KDLLEQRRAAVDTY [65–78*0404, synthetic peptide corresponding to amino acids 65–78 of the β chain encoded by the HLA-DRB*0404 allele]
Protein binding: distinct bands in low pH eluates of peptide-conjugated Sepharose column [3]: ~20
Binding of recombinant human calreticulin to peptide affinity column (calreticulin): specifically bound

Compound: Nc1nc(Cl)nc2c1ncn2[C@@H]1O[C@H](CO)[C@@H](O)[C@H]1O [2CA, 2-chloroadenosine]
2CA-induced DNA repair signal transduced [4]: transduced the signal
DNA repair triggered ([2]; M1 cells stimulated 20 min with various concentrations before 100 μM H2O2): triggered in all cases DNA repair
2CA-induced DNA repair signal transduced [5]: transduced the signal

Compound: KDLLEQKRAAVDTY-NH2 [65–78*0401]
Inhibition of neurite retraction effect of 10% FCS ([6]; data not shown): inhibited the neurite retraction effect
Survival rate versus control peptide 65–78*0402 ([6]; low density, serum-free low glucose medium, 50 μg/ml, 72 hours, p<0.0005): significantly higher survival rate
Percentage of neurite-positive cells versus control peptide 65–78*0402 ([6]; low density, serum-free low glucose medium, 50 μg/ml, 72 hours, p<0.001): higher percentage of neurite-positive cells
Cell morphology after acute serum-free stress ([6]; near-confluent NG108–15, 50 μg/ml peptide, 24 hr): greater preservation of the multipolar flat cell morphology with neurites
Calculated number of neurite-positive cells, fold higher than control peptide ([6]; serum-free low glucose medium, 50 μg/ml, 72 hours): over 6 fold
cGMP levels (M1 cells): triggered increased cGMP levels
pIC50 [2]: ~6.60

Further lines, with some results ahead:

Calreticulin binding compared to control peptide 65–79*0402 [1]: markedly higher calreticulin binding
Compound: KDLLEQKRAAVDTYC [65–79*0401]
Inhibition of cAMP-mediated DNA repair induction (mouse cells): inhibited cAMP-mediated DNA repair induction
Inhibition of cAMP-mediated (2CA-induced) DNA repair induction [2]: inhibited cAMP-mediated DNA repair induction

Calreticulin binding compared to control peptide 65–79*0402 [1]: markedly higher calreticulin binding
Compound: KDLLEQRRAAVDTYC [65–79*0404]
Inhibition of cAMP-mediated DNA repair induction (mouse cells): inhibited cAMP-mediated DNA repair induction
Inhibition of cAMP-mediated (2CA-induced) DNA repair induction [2]: inhibited cAMP-mediated DNA repair induction

Protein binding: distinct bands in low pH eluates of peptide-conjugated Sepharose column [3]: no protein binding was detected
Compound: KDILEDERAAVDTYC [65–79*0402, control peptide, amino acids 65–79 of the β chain encoded by the HLA-DRB*0402 allele]
